“Also recorded” adds a separate entry of the source.
Legend:
[1] = test system: NF-κB; experiment: Inhibition of E. coli LPS-stimulated NF-κB activation (CD25 expression) in 3FP CHO cells; assay type: cell-based, Chinese hamster; settings: for nuclear transcription factor inhibition: LPS-stimulated 3FP cells, CD25 expression; for inhibition effect for LPS-stimulated CD25 expression (NF-κB activation): live 7AAD(−) LPS-stimulated 3FP cells
Description: In order to evaluate the inhibition efficacy for the activation of E. coli LPS-stimulated NF-κB in a CHO cell, % expression of CD 25 in the CHO cell was evaluated as the following method, and FACS analysis after staining with 7-AAD was carried out to evaluate the cytotoxicity. Bile salts were classified into 3 groups based on their solubility in different solvents, as follows:
The CHO cells expressing CD25 under the regulation of a nuclear factor (NF-κB) promoter, shown FIG. 2A, were used for this experiment. Toll-like receptor 2 (TLR2) and CD14 gene-transformed CHO cells (hereinafter referred to as “3FP cells”) were also used.
The next day, the cultured cells were treated with bile acid derivatives and LPS, and were incubated in a CO2 incubator for 15 hr at 37° C.
After stimulating the above incubated cells for 15 hr, the culture solution was centrifuged (1200 rpm, 5 min, 4° C.) to remove the culture supernatant. The precipitate was washed twice with 200 μl of FACS buffer (1×PBS containing 1% BSA and 1 mM EDTA). 20 μl of blocking solution (PBS containing 1:10 of normal mouse serum and 1:3 of anti-human CD14/CD32 (BD, 2.4G2) was added to each well and reacted on an ice for 30 min. A mixture solution of anti-human CD25-PE (1:16) and anti-human CD14-FITC (1:32) was added to the well and then reacted on the ice for 30 min. The reaction mixture was washed twice with 200 μl of FACS buffer, and then 200 μl of 7-AAD (1:20) was added to the reaction mixture. After the reaction mixture was reacted on the ice for 10 min, CD25 expression efficacy and cytotoxicity were analyzed by using a flow cytometer.
In order to analyze living cells, 7-AAD(−) cells were selected and an activation of nuclear transcription factor was confirmed by the increase of CD25 expression.

[2] = test system: dendritic cells; experiment: Inhibition of E. coli LPS-induced activation of dendritic cells (CD40, CD80, CD86, I-Ab expression); assay type: cell-based, mouse; settings: 100 ng/ml E. coli LPS; CD11c(+)/7AAD(−) dendritic cells
Description: In order to assay the effect of sodium glycocholate on the activation procedure of antigen presenting cells, which is induced by E. coli LPS, cells were separated from the bone marrow of recombination activating gene 2 (Rag2) deficient mouse. The separated cells were plated at 2×10^5 cells/well in a 96-well plate and then treated with 1.5 ng/ml of granulocyt-macrophage colony-stimulating factor (GM-CSF) and 0.75 ng/ml of interleukin-4 followed by the differentiation of the cells into dentritic cells through 6-day incubation.
The dendritic cells were well mixed with sodium glycocholate and LPS. The mixtures were stimulated for 18 hours at 37° C., and stained with anti-CD40-FITC, anti-CD80-FITC, anti-I-Ab-PE, anti-CD86-PE, 7AAD and anti-CD11c-APC, then the cells were assayed via a flow cytometer. Each group was treated and assayed at least twice, and the results were statistically analyzed through t-test. The results were p<0.05 compared with the experimental groups treated by only LPS.
As shown FIGS. 9A-9B to 11A-11B, in order to assay only living dedritic cells, CD11c(+)/7AAD(−) cells were selected and then the expressions of dendritic cell costimulatory molecules and I-Ab were assayed.

[3] = test system: macrophages; experiment: In vitro proinflammatory cytokine generation by E. coli LPS, macrophages (ELISA); assay type: cell-based, C57BL/6 mouse; settings: LPS stimulation
Description: In order to assay the effect of sodium glycocholate on the generation of proinflammatory cytokines induced by E. coli LPS, dendritic cells were prepared in the same way as Example 3, and macrophages were separated from the abdomen of C57BL/6 mouse. Thereafter, sodium glycocholate and LPS were reacted in vitro for 1 hour at 37° C., and then mixed with the cells. Each cell was stimulated for 14 hours at 37° C., and then supernatant fluid was separated.
The concentrations of TNF-α and interleukin-12p40 in the separated supernatant fluid was measured by an enzyme-linked immunoabsorbent assay (ELISA).
Each group was treated and assayed at least twice, and the results were statistically analyzed through t-test. The results were p<0.05 compared with the experimental groups treated by only LPS.

[4] = test system: macrophages; experiment: Inhibition of LPS-induced nitric oxide generation, macrophages (Griess); assay type: cell-based, mouse; settings: macrophages stimulated by LPS, 18 hours
Description: Then, the resulting dendritic cell mixtures were plated, by […] each, in a 96-well plate. Griss reagents were added to each well, and the 96-well plate was covered with foils and kept reacting for 15 min at room temperature. Absorbance at 540 nm was measured using an ELISA reader. Macrophages separated from abdomen were also treated with sodium glycocholate, sodium taurochenodeoxycholate and sodium taurodeoxycholate, respectively, and then stimulated with LPS for 18 hours. Thereafter, the same experiments as the dentritic cells were performed to the macrophages.

[5] = test system: LPS-administered C57BL/6 mice; experiment: Protection in LPS mouse model of sepsis (survival); assay type: in vivo, C57BL/6 mouse; settings: for survival rate of the mice: 20 mg/kg LPS into abdomen
Description: In order to assay the neutralizing capacity of sodium glycocholate to LPS, three C57BL/6 mice of 6 weeks age were used per each group. 20 mg/kg and 10 mg/kg of LPS were administered into abdomen of the mouse in order to measure LD50 of LPS. It was observed that 20 mg/kg of LPS is the best optimal concentration for the test of protection test (FIG. 16).
The […] neutralizing capacity of sodium glycocholate to LPS was assayed. The survival rate was measured after 20 mg/kg of LPS was administered into the abdomen of mice and then 12.5 mg/kg of sodium glycocholate, and 20 mg/kg of LPS and 50 mg/kg of sodium glycocholate respectively was administered twice into the abdomen of mice, respectively.

[6] = test system: dendritic cell-mediated T cells; experiment: Cytotoxicity to dendritic cell-mediated T cells (7AAD, FACS); assay type: cell-based, mouse
Description: The cytotoxicity of sodium glycocholate to the CHO cells, dendritic cells, T cells which were used in the above Examples was assayed. FACS analysis was performed after staining with 7AAD. First, sodium glycocholate was kept in vitro for 1 hour at 37° C., and then mixed with cells. CHO cells or dendritic cells were incubated for 14 hours at 37° C., and T cells which were mixed with 14 hour-incubated dendritic cells, were incubated for 4 days. Then, each cell was stained with 7AAD and cell analysis were carried out by using a flow cytometer.

C[C@H](CCC(=O)NCC(=O)[O-])[C@H]1CC[C@H]2[C@@H]3[C@H](O)C[C@@H]4C[C@H](O)CC[C@]4(C)[C@H]3C[C@H](O)[C@]12C.[Na+] [sodium glycocholate]
nuclear transcription factor inhibition ([1]; 0.5 mg/ml): 21.7±0.9%
nuclear transcription factor inhibition ([1]; 1 mg/ml): 88.2±1.2%
inhibition effect for LPS-stimulated CD25 expression (NF-κB activation) [1]: inhibited depending on the concentration
inhibition effect for LPS-stimulated CD25 expression (NF-κB activation) ([1]; listed as sodium glycocholate hydrate): showed an inhibition effect
increased expression of CD40, CD80, CD86 and I-Ab [2]: inhibited depending on the concentration
inhibition of generation of TNF-α ([3]; 0.5 mg/ml): 42.2±0.9%
inhibition of generation of interleukine-12p40 ([3]; 0.5 mg/ml): 9.8±11.0%
inhibition of generation of TNF-α ([3]; 1 mg/ml): 87.8±0.2%
inhibition of generation of interleukine-12p40 ([3]; 1 mg/ml): 54.3±4.1%
generation of NO [4]: inhibited
survival rate of the mice ([5]; 12.5 mg/kg administered twice (1 hour and 6 hours after LPS)): 40%
survival rate of the mice ([5]; 50 mg/kg administered twice (1 hour and 6 hours after LPS)): 60%
mortality of mice ([5]; dose of 12.5 mg/kg mouse): significantly reduced
cytotoxicity ([6]; 1 mg/ml): no significant cytotoxicity; also recorded: dose not have cytotoxicity
7AAD(+) increase compared with the negative control group ([6]; 4 days): 2-4%

— patent US9272047B2, “Use of biological surfactant as anti-inflammatory agent and tissue preservative solution” (Shaperon Inc., priority 2007, dated 2016)
